Results reported in paper PMC11049645, “Mechanistic Study of Novel Dipeptidyl Peptidase IV Inhibitory Peptides from Goat’s Milk Based on Peptidomics and In Silico Analysis” (Foods, 2024).
Read-outs that look alike come from different tables or passages of the source. Blank lines part the entries; values can stand above or below the compound they belong to. Peptide text beside a SMILES is read from it.

What was measured:
DPP-IV [1] = target: T1, DPP-IV (Homo sapiens, UniProt P27487); assay: DPP-IV inhibitory assay (in vitro chemical system, Gly-Pro-pNA); type: biochemical; conditions: Gly-Pro-pNA substrate, pH 8, 37 °C, 60 min, mean ± SD
T1 construct: purchased Sigma-Aldrich
Protocol: The DPP-IV inhibitory activity of peptides was performed as previously reported with slight modifications. Briefly, peptides were diluted using 100 mM Tris-HCL buffer (pH = 8). Then, 25 μL diluted peptides were mixed with 25 μL of 1.6 mM Gly-Pro-pNA in a 96-well microplate and incubated at 37 °C for 10 min. […] The DPP-IV-inhibition (DI) was calculated with the following equation: DI%=1−AS−ASC/ANR−ANC×100% where AS (sample) is the optical density in the presence of peptide, DPP-IV, and Gly-Pro-pNA; ASC (sample control) is the optical density when DPP-IV is replaced with Tris-HCl buffer (100 mM, pH 8.0); ANR (negative reaction) is the optical density in the presence of only DPP-IV solution and Gly-Pro-pNA; and ANC (negative control) is the optical density in the absence of DPP-IV and peptide.

Caco-2 cells = assay: Cell viability assay (MTT); type: cell-based; conditions: 0.025~1 mg/mL, 12 h
Protocol: (§1) The Caco-2 cells (Cell Bank of Shanghai Academy of Biological Science, Shanghai, China) were incubated at 37 °C in a 5% CO2 environment in DMEM supplemented with 10% FBS and 1% penicillin–streptomycin liquid. Unless otherwise stated below, the cells were cultivated at a density of 5 × 10^4 cells/mL in the culture dishes (Corning Inc., Corning, NY, USA). The cell culture medium was changed every two days, and the cells from passage numbers of 15–25 were used in this study.
The cell viability was determined following the method described by You et al. with slight modification. Briefly, Caco-2 cells were seeded in 96-well microplates with a density of 1 × 10^4 cells/well and incubated at 37 °C with 5% CO2 for 24 h. […] After 12 h of intervention, 10 μL of MTT (0.05 mg) was added and incubated for another 4 h. Finally, the DMEM medium was replaced with 100 μL of DMSO and the absorbance of the solubilized crystals was detected at 490 nm (Molecular Devices SpectraMax M5, San Jose, CA, USA). The cell viability was calculated by the following equation:Cell viability (%) = (ODtest − ODblank)/(ODcontrol − ODblank) × 100%

[2] = target: T2, DPP-IV activity of Caco-2 cells (Homo sapiens, UniProt P27487); assay: In situ cell-based DPP-IV inhibition (Gly-Pro-AMC); conditions: 1 h at 37 °C, Gly-Pro-AMC 50 µM, mean ± SD (n = 3), read-out: In situ DPP-IV inhibitory activity IC50
T2 construct: endogenous in cells; host or cells: Caco-2
Protocol: as §1
Briefly, 2 × 10^4 Caco-2 cells/well cells were seeded in 96-well microplates and cultivated for 24 h. […] Subsequently, 100 µL of the fluorescent substrate Gly-Pro-AMC (50 µM) was added to each well and incubated for 5 min. IPI was used as a positive control. Then, the florescence was monitored with excitation and emission wavelengths of 380 nm and 500 nm (Molecular Devices SpectraMax M5, San Jose, CA, USA).

DPP-IV [3] = conditions: cited from earlier work
[4] = peptides with molecular weights greater than 1000 Da, no reference given, read-out: DPP-IV inhibition IC50
[5] = in vitro, identified in the intestinal tract following cow milk ingestion, read-out: DPP-IV inhibition IC50
[6] = read-out: DPP-IV inhibition IC50
[7] = in vitro inhibition test, camel-milk-derived protein hydrolysates
[8] = competitive DPP-IV inhibitory peptides from camel whey protein, read-out: DPP-IV inhibition IC50

T1 sequence (P27487 whole entry): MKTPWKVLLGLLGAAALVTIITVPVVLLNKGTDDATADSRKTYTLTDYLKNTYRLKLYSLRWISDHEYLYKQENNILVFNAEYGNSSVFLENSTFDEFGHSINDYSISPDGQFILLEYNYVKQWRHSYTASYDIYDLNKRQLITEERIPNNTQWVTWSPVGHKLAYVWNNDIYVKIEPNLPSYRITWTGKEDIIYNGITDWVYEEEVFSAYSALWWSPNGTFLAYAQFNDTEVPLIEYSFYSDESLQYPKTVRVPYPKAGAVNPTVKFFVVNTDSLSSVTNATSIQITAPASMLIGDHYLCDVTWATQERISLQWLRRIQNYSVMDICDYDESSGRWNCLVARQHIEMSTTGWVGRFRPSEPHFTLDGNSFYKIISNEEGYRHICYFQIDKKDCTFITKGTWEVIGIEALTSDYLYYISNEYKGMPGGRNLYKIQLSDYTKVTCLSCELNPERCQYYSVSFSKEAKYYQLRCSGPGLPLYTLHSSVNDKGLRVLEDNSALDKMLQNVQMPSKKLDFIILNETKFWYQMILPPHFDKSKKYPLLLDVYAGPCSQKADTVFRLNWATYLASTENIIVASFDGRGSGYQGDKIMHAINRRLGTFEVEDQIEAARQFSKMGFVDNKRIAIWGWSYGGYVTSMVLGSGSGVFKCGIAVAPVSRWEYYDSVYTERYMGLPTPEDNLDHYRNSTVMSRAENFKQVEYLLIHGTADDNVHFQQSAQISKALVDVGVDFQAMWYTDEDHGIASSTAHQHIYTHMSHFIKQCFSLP
T2 sequence (P27487 whole entry): as above

- IC50 (DPP-IV [1]): 1570 ± 256 µM
Compound: CC(C)[C@H](N)C(=O)N1CCC[C@H]1C(=O)N1CCC[C@H]1C(=O)N[C@@H](Cc1ccccc1)C(=O)O [Peptide P2, VPPF] (H-VPPF-OH)

- IC50 (DPP-IV [1]): 2559 ± 5.7 µM
Compound: CC(C)C[C@H](NC(=O)[C@@H]1CCCN1C(=O)[C@@H]1CCCN1C(=O)[C@@H](N)CC(C)C)C(=O)O [Peptide P3, LPPL] (H-LPPL-OH; N-terminus and C-terminus assumed)

Compound: N[C@@H](Cc1ccc(O)cc1)C(=O)N1CCC[C@H]1C(=O)N[C@@H](Cc1ccccc1)C(=O)O [Peptide P4, YPF] (H-Tyr-Pro-Phe-OH)
- Cell viability (Caco-2 cells): no significant decrease in cell viability

- IC50 (DPP-IV [1]): 1750 ± 29.9 µM
Compound: CC(C)C[C@H](NC(=O)[C@H](C)NC(=O)[C@@H]1CCCN1)C(=O)N[C@@H](Cc1ccccc1)C(=O)O [Peptide P5, PALF] (H-PALF-OH; N-terminus and C-terminus assumed)

- IC50 [2]: 155 ± 8.41 µM
- IC50 (DPP-IV [1]): 214 ± 0.64 µM
Compound: CC(C)C[C@H](NC(=O)[C@@H](N)CC(C)C)C(=O)N[C@@H](CC(C)C)C(=O)N1CCC[C@H]1C(=O)O [Peptide P9, LLLP] (H-LLLP-OH; N-terminus and C-terminus assumed)
- Cell viability (Caco-2 cells): no significant decrease in cell viability

Compound: FLEP
- IC50 (DPP-IV [3]; tri- and tetrapeptides containing Pro at the C-terminus, read-out: DPP-IV inhibition IC50): 65.3 ± 3.5 µM

- DPP-IV Inhibitory Activity (IC50, μM) (DPP-IV [1]): not detectable
Compound: FVY [Peptide P6]

Compound: INNQFLPYPY
- IC50 (DPP-IV [3]; [4]): 40.1 µM

Compound: IPAVF
- IC50 (DPP-IV [3]; identified from bovine β-lactoglobulin, read-out: DPP-IV inhibition IC50): 44.7 µM

Compound: IPM
- IC50 (DPP-IV [3]; [5]): 69.5 ± 8.7 µM

Compound: IPYWT
- IC50 (DPP-IV [3]; [6]): 18.3 µM

Compound: IPYWTY
- IC50 (DPP-IV [3]; [6]): 11 µM

Compound: LLAP
- DPP-IV inhibitory activity (in words) (DPP-IV [3]): high DPP-IV inhibitory activity

- DPP-IV Inhibitory Activity (IC50, μM) (DPP-IV [1]): not detectable
- DPP-IV Inhibitory Activity (IC50, μM) (DPP-IV [1]; listed as LLW): no DPP-IV inhibitory activity
Compound: LLW [Peptide P14]

Compound: LPVP
- IC50 (DPP-IV [3]; [7]): 87 ± 3.2 µM

Compound: LPVPQ
- IC50 (DPP-IV [3]; [5]): 43.8 ± 8.8 µM

- DPP-IV Inhibitory Activity (IC50, μM) (DPP-IV [1]): not detectable
Compound: LVW [Peptide P11]

- DPP-IV Inhibitory Activity (IC50, μM) (DPP-IV [1]): not detectable
Compound: LWV [Peptide P12]

- DPP-IV Inhibitory Activity (IC50, μM) (DPP-IV [1]): not detectable
Compound: LYL [Peptide P7]

Compound: MPVQA
- IC50 (DPP-IV [3]; [7]): 93.3 ± 8 µM

Compound: PACGGFYISGRPG
- IC50 (DPP-IV [3]; [4]): 9.4 µM

Compound: VPF
- IC50 (DPP-IV [3]; [8]): 55.1 µM

Compound: VPV
- IC50 (DPP-IV [3]; [8]): 6.6 µM

Compound: WVL [Peptide P10]
- DPP-IV inhibitory activity (in words) (DPP-IV [3]; literature search): previously reported to have DPP-IV inhibitory activity

Compound: YPI
- IC50 (DPP-IV [3]; [8]): 35 µM
